# From patent US20050137251A1, “Dexanabinol and dexanabinol analogs regulate inflammation related genes” (priority 2002, published 2005)
# How the values were obtained:
# [1] = test system: MCP-1 gene expression; test: MCP-1 gene expression in MCAo mice brains; conditions: 5 mg/kg i.v., 18 hours of MCAo
# [2] = test system: IL-2 secretion; test: IL-2 secretion (ELISA) in activated Jurkat T cells; assay type: cell-based; conditions: Homo sapiens, supernatant 24 hours after activation, read-out: IC50 for inhibition of IL-2 secretion
# Text: The technique used to quantify the amount of a given protein in a liquid sample, either tissue culture supernatant or body fluid, is based on Enzyme Linked ImmunoSorbent Assay (ELISA) methodology. Either commercially available or established in house, the assay is based on the capture of the protein of interest by specific antibodies bound to the bottom of an ELISA plate well. Unbound material is washed away, the captured protein is then exposed to a secondary antibody generally labeled with horseradish peroxidase (HRP) or alkaline phosphatase (ALP). Again the unbound material is washed away, the samples are then incubated with the appropriate substrate yielding a colorimetric reaction. The reaction is stopped and reading is carried out in a spectrophotometer at the appropriate wavelength. […] Concentration of the protein in the sample is calculated from the standard curve. […]
# In parallel, the supernatant from each well was collected 24 hours after the activation and analyzed for the presence of secreted IL-2 by ELISA. […] The absorbance measured at 450 nm is proportional to the concentration of IL-2 in the sample or standard. A standard curve is obtained by plotting the concentrations of recombinant IL-2 standards versus their absorbances. The IL-2 concentrations in experimental samples are then determined using the standard curve.
# [3] = test system: IL-6 gene expression; test: IL-6 gene expression in MCAo mice brains; conditions: 5 mg/kg i.v., 18 hrs following MCAo
# [4] = test system: iNOS gene expression; test: iNOS gene expression in MCAo mice brains; conditions: 5 mg/kg i.v., 18 hrs following MCAo
compound,measurement,setting,value
"CCCCCCC(C)(C)c1cc(O)c2c(c1)OC(C)(C)[C@H]1CC=C(CO)C[C@H]21 [dexanabinol, 1,1-dimethylheptyl-(3S,4S)-7-hydroxy-Δ^6-tetrahydrocannabinol]",Reduction of MCP-1 gene expression increase vs vehicle,[1],41%
same,IC50,[2],8 µM
same,Modulation of IL-6 gene expression,[3],not modulated
same,Modulation of iNOS gene expression,[4],not modulated
